Columns and labels:
[1] = tested on: c-MPL transduced NK cells; experiment: Proliferation of c-MPL-expressing human NK cells with thrombopoietin mimetics; type: cell-based; details: 4-5 days culture
Method: FIGS. 16A-16C show proliferation of human NK cells transduced to express GFP and c-MPL cultured for 4-5 days with the indicated concentrations of thrombopoietin (FIG. 16A), romiplostim (FIG. 16B), or eltrombopag (FIG. 16C). […] Mean and SEM of results from 3 blood donors are shown.
NK cells from PBMC from three blood donors were stimulated and transduced to express GFP and c-MPL, then were cultured for 4-5 days with thrombopoietin, romiplostim, or eltrombopag.

GFP+ c-MPL+ NK cells = experiment: Competitive expansion of c-MPL-transduced primary NK cells; type: cell-based, human; details: day 6
Method: (§1) In vitro cell expansion cultures: The NK-92 (5×10^4 cell/ml) and KHYG-1 (1×10^4 cell/ml) cells were cultured in 1 ml of complete medium in 24-well plate. […] Trypan blue negative cells were counted every other day. […] For competitive primary NK and T cell expansion assay, all transduced cells (5×10^5/ml for NK and 4×10^5/ml for T cell) containing a mixture of GFP positive (transduced) and GFP negative (untransduced) cells were plated on day 0. Fresh medium with appropriate supplements was replaced every other day for NK cells and only on day 3 for T cell experiment. Viable cells were counted and percentage of GFP^+ cells was acquired on indicated days (NK: day 4 and 6, T: day 3 and 6). The fold change of GFP^+ cells was calculated by multiplying the counted cell number times the fraction GFP^+.

[2] = tested on: untransduced control cells; experiment: Degranulation assay and cytokine production, untransduced control cells; type: cell-based, human; details: TPO administration
Method: To examine degranulation, cells were washed after two hours and stained with anti-CD107a (H4A3) (BioLegend). To assay cytokine production, GolgiPlug and GolgiStop (BD Biosciences) were added at manufacturer's recommended concentrations within the first hour of co-culture with K562. After 4 hours, cells were washed and stained for cell surface markers, then stained intracellularly with mAb recognizing TNF-α (Mab 11) and IFN-γ (B27) (BD Biosciences).

c-MPL+ KHYG-1 cells = experiment: In vitro cell expansion of c-MPL+ KHYG-1 cells; type: cell-based, human
Text: Lentiviral production and transduction: Lentivirus gene expression vectors encoding EGFP-P2A linker-human EPOR or EGFP-P2A-human c-MPL were cloned according to our design by VectorBuilder (TX, USA). Plasmid DNA for the above and pCMV-dR8.2 dvpr and pCMV-VSV-G packaging plasmids was purified using ZymoPUREII-EndoZero plasmid maxiprep kit (Zymo Research, CA). Lentiviral particles were generated with HEK293T cells and Lipofectamine3000 reagent (Thermo Fisher Scientific, MA) following the manufacturers' instructions. Viral supernatant was harvested at 24 and 48 hours, pooled, and concentrated with lenti-X concentrator (Takara Bio, Japan) or by centrifugation at 18,600 rpm for 2 hours at 4° C. […] After 5 days post-transduction, cells were stained and sorted with fluorescence-activated cell sorting (FACS) using a BD FACSAria II to purify GFP^+EPOR^+ and GFP^+c-MPL^+ NK cell populations.
In vitro cell expansion cultures: The NK-92 (5×10^4 cell/ml) and KHYG-1 (1×10^4 cell/ml) cells were cultured in 1 ml of complete medium in 24-well plate. […] Trypan blue negative cells were counted every other day. […] Viable cells were counted and percentage of GFP^+ cells was acquired on indicated days (NK: day 4 and 6, T: day 3 and 6). The fold change of GFP^+ cells was calculated by multiplying the counted cell number times the fraction GFP^+.

c-MPL+ NK-92 cells = experiment: Short-term expansion and apoptosis assay, c-MPL+ NK-92; type: cell-based, human; details: TPO plus LD IL-2 vs LD IL-2 alone; day 3
Method: as §1
Staining was performed in phosphate-buffered saline (PBS) with 2% FBS and 2 mM EDTA and analyzed on a BD LSRFortessa machine. If intracellular staining was required, BD cytofix/cytoperm (BD Biosciences) was applied for cell fixation and permeabilization after surface staining. The apoptosis assay was performed using PE annexinV apoptosis detection kit (BD Biosciences). The data were analyzed on FlowJo software.

parental NK-92 cell line = experiment: In vitro cell expansion of parental NK-92; type: cell-based, human; details: EPO or TPO administration
Method: In vitro cell expansion cultures: The NK-92 (5×10^4 cell/ml) and KHYG-1 (1×10^4 cell/ml) cells were cultured in 1 ml of complete medium in 24-well plate. […] Trypan blue negative cells were counted every other day. […] The short-term cell expansion assay was performed in similar fashion, except cells were initially cultured without IL-2 overnight before adding different cytokines and enumerating the cell number. For competitive primary NK and T cell expansion assay, all transduced cells (5×10^5/ml for NK and 4×10^5/ml for T cell) containing a mixture of GFP positive (transduced) and GFP negative (untransduced) cells were plated on day 0. Fresh medium with appropriate supplements was replaced every other day for NK cells and only on day 3 for T cell experiment. Viable cells were counted and percentage of GFP^+ cells was acquired on indicated days (NK: day 4 and 6, T: day 3 and 6). The fold change of GFP^+ cells was calculated by multiplying the counted cell number times the fraction GFP^+.

[3] = tested on: GFP+ MPL+ transduced cells; experiment: Cell surface phenotype of c-MPL-transduced primary NK cells; type: cell-based, human
Method: Human NK cells were stimulated and transduced with c-MPL/GFP lentiviral vectors. […] After 4 days, cellular function was assessed by mixing at a 1:1 ratio with K562 target cells and assessing (FIG. 13A) NK cell degranulation (by surface anti-CD107a staining) two hours later, or (FIG. 13B) intracellular IFN-γ and TNF-α four hours after addition of K562. Results for gated GFP transduced cells or independent untransduced cultures from the same donors are shown. The cell surface phenotype of the NK cells was also assessed after 4 days of culture with cytokines as indicated (FIG. 13C).
Flow cytometry, reagents and pathway analysis: Fluorochrome-conjugated monoclonal antibodies were used as follows: BD Biosciences: CD56-PE-Cy7 (NCAM16.2), CD3-PE (UCHT1), c-MPL-PE (1.6.1), STAT5(pY694)-Alexa Fluor647 (47/stat5(pY694)), NKp46-APC (9E2), NKp44-PE (p44-8), FAS-PE (DX2) CD62L-V450 (DREG-56); R&D systems: EPOR-PE (FAB307P); Biolegend: Bc1-2-PE (100), TRAIL-APC (RIK-2), CXCR4-BV421 (12G5), KIR3DL1-BV421 (DX9); Abcam: Bcl-xL-PE (ab208747); Cell signaling technology: P-p44/42 MAPK-Alexa Fluor647 (E10) and p-S6 ribosomal protein-PE (D57.2.2E); Beckman Coulter: NKG2A-PE (Z199), KIR2DL1/S1-PE (EB6B), KIR2DL2/3-PE/Cy5.5 (GL183). Staining was performed in phosphate-buffered saline (PBS) with 2% FBS and 2 mM EDTA and analyzed on a BD LSRFortessa machine. […] The data were analyzed on FlowJo software.

## TPO: recombinant human thrombopoietin, ligand of the c-MPL receptor; 50 ng/ml rhTPO (R&D)
[1]
  proliferation of c-MPL transduced NK cells: induce proliferation
GFP+ c-MPL+ NK cells; TPO plus 10 U/ml LD IL-2
  fold change of GFP+ c-MPL+ NK cells: 24.3 fold
GFP+ c-MPL+ NK cells; TPO+25 U/ml IL-2
  fold change of GFP+ c-MPL+ NK cells: 34.1 fold
[2]
  degranulation or cytokine production of untransduced control cells: no measured effects
c-MPL+ KHYG-1 cells; TPO alone
  cell growth of transduced KHYG-1 cells: insufficient to maintain cell growth
c-MPL+ KHYG-1 cells; TPO with low-dose IL-2 (1 U/ml or 5 U/ml)
  proliferative response of receptor-transduced KHYG-1 NK cells: synergized
c-MPL+ NK-92 cells
  proportion of dead/apoptotic cells: significantly lower proportions of dead/apoptotic cells
Parental NK-92 cell line
  expansion of the parental NK-92 cell line: did not alter
[3]; TPO added to media containing 25 U/ml IL-2, normalized to each donor
  CD62L expression: significantly increased CD62L expression
[3]; TPO added to media containing 25 U/ml of IL-2
  NK cell phenotype other than CD62L: no phenotypic differences

Reference: patent US20240024479A1, “NK CELLS OR T CELLS EXPRESSING CHIMERIC HEMATOPOIETIC GROWTH FACTOR RECEPTORS AND METHODS OF USE” (The United States of America, as represented by the …, priority 2020, published 2024)
